Data reported in publication PMC5768801, “The PII signaling protein from red algae represents an evolutionary link between cyanobacterial and Chloroplastida PII proteins” (Scientific Reports, 2018).

Tested on: PipX
Assay: Pull-down analysis of PipX binding to PII proteins
Design: species or system Synechocystis sp. PCC 6803
Conditions: 10 µM proteins, 1 mM ADP, Strep-Tactin column, Tricine-SDS-PAGE
Text: In cyanobacteria, PipX is the second known receptor of PII signaling. We questioned whether red algal PII proteins have lost or retained the ability to bind to PipX. To test this possibility, we first analyzed complex formation using pull-down experiments (Supplementary Fig. S3A and B). The PII protein from Synechocystis sp. PCC 6803 (ScPII) was mixed with PipX in the presence of ADP and then the Strep-tagged PII was immobilized on the Strep-Tactin II column (Supplementary Fig. S3A). After extensive washes, the proteins were eluted with desthiobiotin and analyzed by Tricine-SDS-PAGE. Both proteins were detected in the elution. Thus, confirming previous studies[16]–[18], cyanobacterial PII was bound to PipX. When PpPII in the presence of PipX was immobilized on the column, no PipX signal was detected in the elution (Supplementary Fig. S3B).
For complex formation, the binding reactions were done in 300 μl of buffer (100 mM Tris HCl, pH 8.0, 150 mM NaCl, 1 mM EDTA) by adding 10 µM of purified proteins: His6-ScPipX and Strep-tag ScPII or Strep-tag PpPII. […] The eluted fractions were analyzed by Tricine-SDS PAGE[51] and stained with SimplyBlue™ SafeStain (Invitrogen).
Figure S3. […] Complex formation between PipX and ScPII (A) or PpPII (B) was assessed by pull-down. […] (C) Complex formation between PipX and PII proteins was assessed by SPR. […]

**Q.** Which “complex formation with PipX (pull-down)” value does the source give for “ScPII: PII protein from Synechocystis sp. PCC 6803, recombinant with C-terminal Strep-tag II” here?
**A.** bound to PipX
